Data on 5 molecules can be found in patent US10952961B2, “Implants and constructs including hollow fibers” (priority 2015, dated 2021).

The conditions of data set [1]: diffusivity in water; cited from earlier work.
Data set [2] can be described thus: Diffusivity of example drug molecules in water and in broad membrane pores. As to conditions: diffusivity within broad-pore membrane (HFHHP); unit not printed in this column, D is in cm^2/s. The class given is physicochemical. An excerpt: Assuming that the pore diameter essentially exceeds the molecule dimension, which is necessary for drug release to occur in any of the modes of drug release, Dm can be presented as product of three multipliers: diffusivity in water D, membrane porosity ε and tortuosity t0; Dm=Dεt0^−1. The maximal porosity is about 0.5. Taking into account the tortuosity t0=2, Dm˜0.25D. Vl has to be replaced by local interstitial velocity Vint. In turn, Vint can be specified as Vn(LB), when the condition 2Rlb>>Rf is valid and the fabric is placed at a small distance from LB. […] As to lm, having its value be small is desirable for the diffusion-dominated case.
[formula] This yields, E=Pe^0.5. This equation estimate E from below, i.e., the real E is essentially larger. A larger Pe means a larger role of convection in comparison with diffusion. […] But the derived equation quantifies this observation. The diffusivity D depends on the water viscosity η and on the macromolecule radius r. This dependence is described by the Stokes-Einstein equation:
[formula] where k is the Boltzman constant, T is absolute temperature. r increases with molecular weight (MW) and 100<MW<500 g/mole. This is not true for proteins and larger molecules.
With respect to broad pores of membrane in case of HFHHP, Dm≅εt0^−1D˜0.25D.

For data set [3], the system named is Pseudomonas aeruginosa PAO1 Xen41. Briefly: Zone of inhibition (modified Kirby-Bauer) of drug-loaded hollow fibers. The class given is cell-based. As to conditions: drug-loaded polypropylene hollow fibers (saturated solution). As to the method:
(§1) To assess the antimicrobial efficacy of drug loaded hollow fibers, we used a modified Kirby-Bauer assay where a zone of inhibition of bacterial growth was measured on a solid agar plate as is normally done in the field of microbiology. This model was used since it allowed us to capture the real time drug release from the hollow fibers and at the same time to represent a model of drug release into a soft tissue. […] Vancomycin was chosen for proof of principle with the hollow fibers devices because this antibiotic has precedent in being commonly used to combat S. aureus infection in orthopedic joint arthroplasties, where locally high concentrations are delivered by elution from both non-absorbable (polymethyl methacrylate, PMMA) and absorbable mineral cements. Ciprofloxacin was used since it is a broad spectrum antibiotic used to target Gram negative pathogens such as P. aeruginosa. In addition, water soluble fluorescein sodium was used as a model drug to assess the release of a hydrophilic water-soluble agent from the hollow fiber drug delivery system. All reagents were purchased from Sigma-Aldrich. P. aeruginosa and S. aureus are biofilm-forming pathogens commonly isolated from infected meshes and sutures, and the strains we have selected have been transformed with bioluminescent genes so that live biofilm development and activity can be tracked in real time using a photon counting camera (Xenogen IVIS imaging system, Alameda, Calif.).
(§2) A lawn of bacteria was spread out onto an LB (Luria broth) agar plate. The plate was incubated at 5% CO2 at 37° C. for 18 hours for the first challenge. The fibers were then aseptically removed from the original plate and placed on a fresh lawn of bacteria on a new plate for the second challenge and incubated as before. Drug-free hollow fibers rinsed with isopropanol alone were used as controls. Experiments were repeated in triplicate. […] The fibers were then placed on a fresh plate and re-challenged. […]

The conditions of data set [4]: room temperature; cited from earlier work.
Data set [5] concerns Staphylococcus aureus 16MRSA Xen30. Briefly: Zone of inhibition (modified Kirby-Bauer) of drug-loaded hollow fibers. The format is cell-based. The procedure:
as §1, §2

The nature of data set [6]: Saturated drug solutions in normal saline used to fill hollow fibers. The class given is physicochemical.
Text: Pressure was applied on the syringe plunger until liquid drops were visibly seen to form at the open end of each of the hollow fibers.

Consider `Cn1c(=O)c2c(ncn2C)n(C)c1=O` [Caffeine], for which, in data set [1], the “D (cm^2/s) Aqueous” value is reported as 4.9 × 10^−6 cm^2/s. Further, the “Dm = 0.25 D” value in data set [2] is recorded as 1.5 × 10^−6.
Regarding `O=C(O)c1cn(C2CC2)c2cc(N3CCNCC3)c(F)cc2c1=O` [ciprofloxacin], in data set [3], the “challenges over which a zone of inhibition was achieved” value is given as “one challenge”.
In the case of `CO[C@H]1/C=C/O[C@@]2(C)Oc3c(C)c(O)c4c(O)c(c(/C=N/N5CCN(C)CC5)c(O)c4c3C2=O)NC(=O)/C(C)=C\C=C\[C@H](C)[C@H](O)[C@@H](C)[C@@H](O)[C@@H](C)[C@H](OC(C)=O)[C@@H]1C` [rifampicin], the solubility in methanol result in data set [4] is on record as “at least 50 milligrams/milliliter”.
Regarding `CN[C@H](CC(C)C)C(=O)N[C@H]1C(=O)N[C@@H](CC(N)=O)C(=O)N[C@H]2C(=O)N[C@H]3C(=O)N[C@H](C(=O)N[C@H](C(=O)O)c4cc(O)cc(O)c4-c4cc3ccc4O)[C@H](O)c3ccc(c(Cl)c3)Oc3cc2cc(c3O[C@@H]2O[C@H](CO)[C@@H](O)[C@H](O)[C@H]2O[C@H]2C[C@](C)(N)[C@H](O)[C@H](C)O2)Oc2ccc(cc2Cl)[C@H]1O` [vancomycin], in data set [5] (drug-loaded polypropylene hollow fibers (saturated solution), repeated challenges on fresh lawns), the “period over which a zone of inhibition was achieved” value stood at 2 days. The “activity on the second challenge” value in data set [5] (fiber moved to a fresh plate and re-challenged) is “showed activity”. For the same molecule, the “concentration of saturated solution” value in data set [6] amounted to 100000 µg/mL.
As to Insulin, the “D (cm^2/s) Aqueous” value in data set [1] is 8.3 × 10^−7 cm^2/s. The “Dm = 0.25 D” value in data set [2] was 2.5 × 10^−7.
